{
  "source": "patent US6703485B2",
  "about": "“Brain and heart cyclic nucleotide gated ion channel compounds and uses thereof” (The Trustees of Columbia University in the City of New York, priority 1997, dated 2004)",
  "key": {"mBCNG-1 channel": {"target": "T1, mBCNG-1 channel (Mus musculus, UniProt O88704)", "T1 construct": "expressed in transfected cells; host or cells: Xenopus oocytes injected with cRNA (pSD64TR vector, SP6 transcript); cell-free inside-out and outside-out patches", "T1 sequence (O88704 whole entry)": "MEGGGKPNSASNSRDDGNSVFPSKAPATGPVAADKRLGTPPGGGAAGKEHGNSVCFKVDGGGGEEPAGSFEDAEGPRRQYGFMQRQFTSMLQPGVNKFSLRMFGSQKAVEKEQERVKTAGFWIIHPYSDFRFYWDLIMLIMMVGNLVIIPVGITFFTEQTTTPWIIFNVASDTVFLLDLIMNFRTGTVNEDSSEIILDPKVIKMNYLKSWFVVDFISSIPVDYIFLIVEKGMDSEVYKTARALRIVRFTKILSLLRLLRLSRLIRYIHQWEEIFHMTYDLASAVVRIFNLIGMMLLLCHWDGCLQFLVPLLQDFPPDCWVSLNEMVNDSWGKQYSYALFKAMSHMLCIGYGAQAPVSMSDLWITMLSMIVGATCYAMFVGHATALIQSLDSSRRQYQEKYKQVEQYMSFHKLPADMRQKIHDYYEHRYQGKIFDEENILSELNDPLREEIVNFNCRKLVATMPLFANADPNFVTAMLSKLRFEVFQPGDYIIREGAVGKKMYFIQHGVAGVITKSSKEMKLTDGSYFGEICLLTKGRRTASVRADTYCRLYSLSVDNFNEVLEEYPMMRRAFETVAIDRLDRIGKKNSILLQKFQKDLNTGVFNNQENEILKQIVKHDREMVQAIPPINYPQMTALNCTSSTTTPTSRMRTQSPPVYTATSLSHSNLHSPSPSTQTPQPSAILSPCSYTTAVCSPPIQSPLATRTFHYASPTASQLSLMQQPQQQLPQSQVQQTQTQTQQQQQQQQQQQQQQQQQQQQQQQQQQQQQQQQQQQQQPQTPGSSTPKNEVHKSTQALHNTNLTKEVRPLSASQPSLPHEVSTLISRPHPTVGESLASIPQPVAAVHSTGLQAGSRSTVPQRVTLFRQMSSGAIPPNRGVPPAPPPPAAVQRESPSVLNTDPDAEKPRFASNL", "assay_type": "biochemical"}, "[1]": {"target": "T2, bovine photoreceptor CNG channels (Bos taurus, UniProt Q00194)", "T2 sequence (Q00194 1-690)": "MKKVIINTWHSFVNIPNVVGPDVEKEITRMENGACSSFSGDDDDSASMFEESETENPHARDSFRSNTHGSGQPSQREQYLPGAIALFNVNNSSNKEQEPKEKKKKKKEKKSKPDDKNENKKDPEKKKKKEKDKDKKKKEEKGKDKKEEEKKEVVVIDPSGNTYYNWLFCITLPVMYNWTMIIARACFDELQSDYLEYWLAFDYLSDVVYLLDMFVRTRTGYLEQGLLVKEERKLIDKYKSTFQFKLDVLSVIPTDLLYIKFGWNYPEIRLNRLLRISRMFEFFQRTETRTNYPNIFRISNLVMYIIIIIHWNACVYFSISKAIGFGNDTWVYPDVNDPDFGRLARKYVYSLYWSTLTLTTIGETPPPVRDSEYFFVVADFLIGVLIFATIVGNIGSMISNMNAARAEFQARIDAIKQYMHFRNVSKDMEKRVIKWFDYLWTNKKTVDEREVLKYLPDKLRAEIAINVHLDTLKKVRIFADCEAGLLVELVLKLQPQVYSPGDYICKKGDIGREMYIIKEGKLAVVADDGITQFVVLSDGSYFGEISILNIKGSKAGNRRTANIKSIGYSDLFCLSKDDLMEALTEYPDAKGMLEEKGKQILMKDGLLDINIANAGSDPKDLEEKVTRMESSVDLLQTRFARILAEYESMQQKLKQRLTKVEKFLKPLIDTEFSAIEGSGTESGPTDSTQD", "conditions": "Kramer and Tibbs, 1996; cited from earlier work"}, "Pacemaker channel": {"test_system": "Pacemaker channel", "conditions": "myocardial ischemia, Schlack et al., 1998; cited from earlier work"}, "[2]": {"test_system": "Ih in hippocampal neurons", "conditions": "Pedarzani and Storm, 1995; cited from earlier work"}, "If in sino-atrial node": {"test_system": "If in sino-atrial node", "conditions": "DiFrancesco and Tortora, 1991; cited from earlier work"}, "Ih in sensory neurons": {"test_system": "Ih in sensory neurons", "conditions": "Ingram and Williams; cited from earlier work"}},
  "note": "pIC50: −log10 of the molar value. Where “and” joins values, the source holds several entries; their conditions need not be identical. Equal values may be shown once.",
  "data": [
    {"smiles": "[Ba+2]", "note": "[Ba]", "values": [
      {"measurement": "mean percent inhibition of mBCNG-1 current", "setting": "mBCNG-1 channel; 1 mM Ba in external solution, outside-out patch, n=3", "value": "0±5", "unit": "%"}
    ]},
    {"smiles": "[Cl-].[Cs+]", "note": "[Cs]", "values": [
      {"measurement": "% inhibition of mBCNG-1 current", "setting": "mBCNG-1 channel", "value": "92.4±2.5", "unit": "%"},
      {"measurement": "Hill coefficient for inhibition of mBCNG-1 current by Cs", "setting": "mBCNG-1 channel", "value": "~1 and 1.08"},
      {"measurement": "pIC50", "setting": "mBCNG-1 channel; read-out: IC50 for inhibition of mBCNG-1 current by Cs", "value": "~3.70 and 3.70"}
    ]},
    {"smiles": "Nc1nc2c(ncn2[C@@H]2O[C@@H]3COP(O)(=S)O[C@H]3[C@H]2O)c(=O)[nH]1", "note": "(stereo partly shown) [Rp-cGMPS]", "values": [
      {"measurement": "Effect on channel opening", "setting": "[1]", "value": "antagonist of channel opening"}
    ]},
    {"smiles": "Nc1nc2c(ncn2[C@@H]2O[C@@H]3COP(O)(=S)O[C@H]3[C@H]2O)c(=O)[nH]1", "note": "(stereo partly shown) [Sp-cGMPS]", "values": [
      {"measurement": "Effect on channel opening", "setting": "[1]", "value": "agonist"}
    ]},
    {"smiles": "CCN(c1ccccc1)c1cc(=NC)n(C)c(C)n1.Cl", "note": "[ZD 7288]", "values": [
      {"measurement": "Effect on infarct size", "setting": "Pacemaker channel", "value": "reduce infarct size"}
    ]},
    {"smiles": "Nc1ncnc2c1ncn2[C@@H]1O[C@@H]2COP(=O)(O)O[C@H]2[C@H]1O", "note": "[cAMP]", "values": [
      {"measurement": "cAMP-dependent shift of Ih", "setting": "[2]", "value": "2-3 mV"},
      {"measurement": "cAMP-dependent shift of If", "setting": "If in sino-atrial node", "value": 10, "unit": "mV"},
      {"measurement": "cAMP-dependent shift of Ih", "setting": "Ih in sensory neurons", "value": "4-6 mV"}
    ]}
  ]
}
